According to patent US6335348B1, “Nitrogen-containing linear and azepinyl/ compositions and uses for vision and memory disorders” (GPI NIL Holdings, Inc., priority 1998, dated 2002):
Where two headings read alike, the source gives them in different places. Marks after values point to notes of the source that are not given here. Each block holds one compound with its values, some of them ahead of it.

Tests used:
FKBP12 = FKBP12 (Homo sapiens, UniProt P62942); assay: Ki test procedure: inhibition of peptidyl-prolyl isomerase (rotamase) activity, chymotrypsin-coupled assay; type: biochemical
Chain of FKBP12 (P62942 whole entry, species assumed): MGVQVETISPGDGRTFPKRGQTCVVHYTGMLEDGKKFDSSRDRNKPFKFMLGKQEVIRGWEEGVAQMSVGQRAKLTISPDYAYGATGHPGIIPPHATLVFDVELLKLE
Excerpt: The inhibition of the prolyl peptidyl cis-trans isomerase activity of FKBP may be measured as an indicator of this affinity. Inhibition of the peptidyl-prolyl isomerase (rotamase) activity of the compounds used in the inventive methods and pharmaceutical compositions can be evaluated by known methods described in the literature (Harding et al., Nature, 1989, 341:758-760; Holt et al. J. Am. Chem. Soc., 115:9923-9938). […] The cis-trans isomerization of an alanine-proline bond in a model substrate, N-succinyl-[…]-nitroanilide, is monitored spectrophotometrically in a chymotrypsin-coupled assay, which releases para-nitroanilide from the trans form of the substrate. The inhibition of this reaction caused by the addition of different concentrations of inhibitor is determined, and the data is analyzed as a change in first-order rate constant as a function of inhibitor concentration to yield the apparent Ki values. […] The reaction is initiated by the addition of […] of substrate (succinyl-[…]-nitroanilide, 5 mg/mL in 2.35 mM LiCl in trifluoroethanol). The absorbance at 390 nm versus time is monitored for 90 seconds using a spectrophotometer and the rate constants are determined from the absorbance versus time data files.

[1] = test system: retinal ganglion cell axons; assay: Protection of retinal ganglion cell axons from degeneration 14 days after optic nerve transection (Table V); type: in vivo; details: ± SEM
Excerpt: Efficacy of representative compounds from different immunophilin ligand series in protecting retinal ganglion cell axons from degeneration following optic nerve transection is set forth in Table V.

[2] = Clearance (Table V comments); type: in vitro ADME
[3] = test system: streptozotocin-induced diabetic rat; assay: Streptozotocin-induced diabetic sensory neuropathy, hot plate and tail flick; type: in vivo, Male Wistar rats; details: lesioned animals treated for 6 weeks at 10 mg/kg s.c.
Procedure: The procedure involved using Male Wistar rats which were given a single injection of streptozotocin (65 mg/kg i.v.). Blood glucose levels were determined weekly for the first three weeks and on the last week of the experiment. Animals were evaluated weekly for signs of sensory neuropathy using the conventional hot plate and tail flick apparatus test procedures.

retinal ganglion cells = assay: Example 13: optic nerve transection, 28 days treatment, sacrifice 90 days after transection; type: in vivo, Sprague Dawley rats; details: 10 mg/kg/day s.c. for 28 days
[4] = test system: retinal ganglion cells and optic nerve axons; assay: Optic nerve transection, 14 or 28 day treatment, evaluated 90 days after transection; type: in vivo, Sprague Dawley rats; details: for Proximal optic nerve myelin basic protein Density: % areal coverage of optic nerve cross section, ± SEM; for Distal optic nerve: shrinkage of cross sectional area: compared to sham control
Excerpt: All eyes and optic nerves stumps were removed.

[5] = apparent Ki, Table C, read-out: Ki
[6] = Table V comments, read-out: Ki rotamase

SMILES: COc1ccc(CCCCOC(=O)C2CCCCN2C(=O)C(=O)c2cc(OC)c(OC)c(OC)c2)cc1 (centres unmarked) [Compound 25]
Ki (FKBP12; [5]): 0.013 µM

SMILES: O=C(OCCCCc1ccccc1)[C@@H]1CCCCN1S(=O)(=O)Cc1ccccc1 [D]
RT97 + RGC axon density 14 days after ON transection (% ON axons rescued) [1]: 58.4% ± 6.4% SEM

SMILES: CCC(C)(C)C(=O)C(=O)N1CCS[C@@H]1C(=O)OCCCc1cccnc1 [F]
RT97 + RGC axon density 14 days after ON transection (% ON axons rescued) [1]: 55.1% ± 5.9% SEM

SMILES: CCC(C)(C)C(=O)C(=O)N1CCC[C@H]1C(=O)OCCCc1cccnc1 [GPI 1046]
latency in hot plate and tail flick [3]: improvement in latency
preservation of axons in the proximal stump (RT97 neurofilament immunohistochemistry) (retinal ganglion cells): preserved the axons of virtually all protected neurons
Proximal optic nerve myelin basic protein Density ([4]; ONT/14 days GPI 1046): did not alter the pattern of myelin degeneration
Distal optic nerve: shrinkage of cross sectional area ([4]; ONT/14 days GPI 1046): did not protect against shrinkage of the distal stump
Distal optic nerve myelin basic protein Density: myelin loss ([4]; ONT/14 days GPI 1046, cross sectional area multiplied by myelin density): slightly increase the density,of myelin
RGC Counts ([4]; ONT/28 days GPI 1046, 10 mg/kg/day sc, 90 days after transection, mean density of Fluoro-gold labeled RGC in 400 μm × 400 μm gridfields): 67.9 +
Proximal optic nerve myelin basic protein Density ([4]; ONT/28 days GPI 1046): dramatic preservation of the fascicular staining pattern
ON axon Count ([4]; ONT/28 days GPI 1046, calculated by multiplying axonal density by ON area): 22.861*
Distal optic nerve: shrinkage of cross sectional area ([4]; ONT/28 days GPI 1046): prevented cross sectional shrinkage
Distal optic nerve myelin basic protein Density: myelin preservation ([4]; ONT/28 days GPI 1046, cross sectional area multiplied by myelin density): 99% myelin % myelin preservation

SMILES: CCC(C)(C)C(=O)C(=O)N1CCCC[C@H]1C(N)=O [H]
RT97 + RGC axon density 14 days after ON transection (% ON axons rescued) [1]: 30.3% ± 8.0% SEM

SMILES: CCC(C)(C)C(=O)C(=O)N1CCC[C@H]1C(=O)CCCCc1cccnc1 [J]
RT97 + RGC axon density 14 days after ON transection (% ON axons rescued) [1]: 15.8% ± 4.8% SEM

SMILES: CCC(C)(C)C(=O)C(=O)N1CCC[C@H]1C(=O)SCCC(c1ccccc1)c1ccccc1 [M]
RT97 + RGC axon density 14 days after ON transection (% ON axons rescued) [1]: −6.3% + 3.9% SEM

Second part, led by results:

Ki (FKBP12; [5]): 20 µM
SMILES: COC(=O)C(=O)N1CCCCC1C(=O)OCCCC1CCCCC1 (centres unmarked) [Compound 18]

Ki (FKBP12; [5]): 35 µM
SMILES: COC(=O)C(=O)N1CCCCC1C(=O)OCCCC1CCCC1 (centres unmarked) [Compound 19]

Ki (FKBP12; [6]): 0.149 µM
SMILES: O=C(SCCCc1ccccc1)[C@@H]1CCCN1C(=O)NC12CC3CC4(CC(C3)(C4)C1)C2 [Compound B]
RT97 + RGC axon density 14 days after ON transection (% ON axons rescued) [1]: 100.0% ± 5.2% SEM

Clearance [2]: 4.5 µL/min
SMILES: CCC(C)(C)C(=O)C(=O)N1CCCC[C@H]1C(=O)SCCC(c1ccccc1)c1ccccc1 [Compound K]
RT97 + RGC axon density 14 days after ON transection (% ON axons rescued) [1]: 13.0% ± 4.2% SEM

Clearance [2]: 41.8 µL/min
SMILES: CCC(C)(C)C(=O)C(=O)N1CCCC[C@H]1C(=O)OC(CCc1ccccc1)CCc1ccccc1 [E]

Ki (FKBP12; [6]): > 10 µM
SMILES: CCC(C)(C)C(=O)C(=O)N1CCCC[C@H]1C(=O)O [G]
RT97 + RGC axon density 14 days after ON transection (% ON axons rescued) [1]: 34.0% ± 4.8% SEM

Ki (FKBP12; [6]): ≥ 7.74 µM
SMILES: CCC(C)(C)C(=O)C(=O)N1CCC[C@H]1C(=O)O [L]
